What was measured:
[1] = molecular target: Kappa-type opioid receptor (Homo sapiens, UniProt P41145)
Mu-type opioid receptor = Mu-type opioid receptor (Rattus norvegicus, UniProt P33535)
Sequence of Mu-type opioid receptor (P33535 whole entry): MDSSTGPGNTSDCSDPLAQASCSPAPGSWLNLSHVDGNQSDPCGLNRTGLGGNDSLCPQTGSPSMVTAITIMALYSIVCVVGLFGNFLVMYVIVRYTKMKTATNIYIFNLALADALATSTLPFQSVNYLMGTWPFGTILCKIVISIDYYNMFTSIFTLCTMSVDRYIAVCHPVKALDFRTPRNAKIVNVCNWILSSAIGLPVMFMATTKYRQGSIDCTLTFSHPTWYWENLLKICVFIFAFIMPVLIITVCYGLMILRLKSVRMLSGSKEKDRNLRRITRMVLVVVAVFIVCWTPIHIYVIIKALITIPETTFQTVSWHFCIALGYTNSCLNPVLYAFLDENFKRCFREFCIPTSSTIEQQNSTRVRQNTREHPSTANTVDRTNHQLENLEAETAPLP

Sequence of Kappa-type opioid receptor (P41145 whole entry): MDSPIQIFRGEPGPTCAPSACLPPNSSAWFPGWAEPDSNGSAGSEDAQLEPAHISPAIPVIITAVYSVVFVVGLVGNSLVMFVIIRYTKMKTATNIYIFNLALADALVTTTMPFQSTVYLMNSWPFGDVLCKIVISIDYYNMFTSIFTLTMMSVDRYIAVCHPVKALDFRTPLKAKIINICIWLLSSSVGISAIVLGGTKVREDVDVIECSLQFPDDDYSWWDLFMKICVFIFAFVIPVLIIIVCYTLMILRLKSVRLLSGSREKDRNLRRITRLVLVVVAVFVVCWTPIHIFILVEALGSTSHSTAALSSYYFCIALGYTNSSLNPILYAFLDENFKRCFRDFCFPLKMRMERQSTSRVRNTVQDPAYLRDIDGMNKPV

Compound	Ki [1] [nM]	Ki (Mu-type opioid receptor) [nM]
COC(=O)C12CN(C)CC(C(=O)OC)(C1=O)C(c1cccc(F)c1)N(C)C2c1cccc(F)c1 (configuration not stated)	248	–
CN(C(=O)C=Cc1ccoc1)C1CCC2(O)C3Cc4ccc(O)c5c4C2(CCN3CC2CC2)C1O5 (configuration not stated) [CAS_213055]	–	5.2

From BindingDB's records for doi:10.1124/jpet.104.073668 (Temple University, 2005)
